Measured values from US10905683B2, “Compositions and uses of amidine derivatives” (BIOCRYST PHARMACEUTICALS, INC., priority 2014, dated 2021).
Values joined by “and” are separate entries in the source; they are usually repeats but may differ in a detail not shown here. Identical values can stand only once. Like-named read-outs stand apart in the source and are kept apart here.

Key:
[1] = Phase 1 Part 1, single ascending oral dose pharmacokinetics and food effect; assay type: in vivo, human; conditions: for Tmax: median
Experimental: A two-part, Phase 1, double-blind, placebo-controlled study of the compound of Example 1 was conducted in healthy subjects. Part 1 of the study assessed the safety, tolerability and the pharmacokinetic (PK) and pharmacodynamic (PD) properties of the compound of Example 1 following a single ascending dose. Subjects were enrolled in five sequential cohorts and received the compound of Example 1 (50 mg, 125 mg, 250 mg, 500 mg or 1000 mg; n=6/cohort) or placebo (n=2/cohort) under fasting conditions. To enable a food-effect assessment on exposure, subjects enrolled in Cohort 4 (500 mg or placebo) subsequently received a second dose of the compound of Example 1 following a high-fat breakfast.
A summary of the pharmacokinetic parameters for fasting, single oral doses of 50 to 1000 mg of the compound of Example 1 (Part 1) is presented in Table 16.
Compound concentrations then declined biphasically and were quantifiable through 9 hours postdose in Cohort 1 (50 mg) and 24 hours postdose in Cohorts 4 and 5 (500 and 1000 mg).

[2] = Absorption enhancement studies in the rat, intragastric dosing, plasma concentration
Experimental: Based on the solubility data that was reported previously, combinations of solvents were evaluated to study the effect of formulation composition on oral absorption.
Combinations of solvents and surfactants were evaluated in rat, dog and nonhuman primate models at levels appropriate for a potential human oral pharmaceutical product.
The early studies in rats used aqueous dosing solutions.
These formulations included a variety of solvents and co-solvents for evaluation to maximize absorption and form a physicochemically stable liquid. Unless otherwise indicated, the percentages are expressed by weight as a proportion of the total weight of all excipients present in the mixture (i.e. excluding the active ingredient).

[3] = Solubility in surfactant solutions; assay type: physicochemical
Experimental: The solubility of the compound of Example 1 in a range of surfactants was measured. Solubility assays were performed by the sequential addition of the compound of Example 1 to an appropriate organic solvent while stirring vigorously until a precipitate is formed. The resulting suspension is then shaken for 24 hours at room temperature, filtered and the resulting solution was analyzed by appropriate analytical method. Quantitation was performed by comparison of the concentrations of the resulting solution of the compound of Example 1 to a single point calibration curve using a solution of the reference standard.

[4] = octanol-PBS pH 7.4 partition coefficient (log D7.4) assay; assay type: physicochemical; conditions: octanol/0.01 M phosphate buffer pH 7.4, 24 hours, LC/MS/MS
Experimental: A 1 μL volume of a 1 mM stock solution of the compound in dimethyl sulfoxide (DMSO) was added to 500 μL 0.01 M phosphate buffer pH 7.4 (saturated with octanol) and 500 μL of octanol (saturated with 0.01 M phosphate buffer). […] Samples were prepared in triplicate.

[5] = Solubility with cyclodextrins and co-agents; assay type: physicochemical; conditions: for solubility: aqueous with cosolvent or surfactant or cyclodextrin, thermodynamic from solid
Experimental: Additional solubility studies were undertaken using cyclodextrins, including α-cyclodextrin and a polyanionic β-cyclodextrin derivative with a sodium sulfonate salt separated from the lipophilic cavity by a butyl ether or sulfobutylether spacer group) (referred to herein as Captisol) in combination with a variety of co-agents.
Test samples were prepared with the indicated cyclodextrins and the compound of Example 1, both with and without additional agents. The test solutions were sonicated in a Fisher model 55 dismembrator (small probe) at its maximum setting of 5 for 90 seconds. The samples were rotated overnight at room temperature to allow equilibration. Quantitation was performed by comparison of the concentrations of the resulting solution of the compound 1 to a single point calibration curve using a solution of the reference standard.

[6] = 50 mg single oral dose, fasting, GM
[7] = 125 mg single oral dose, fasting, GM
[8] = 250 mg single oral dose, fasting, GM
[9] = 500 mg single oral dose, FASTED, GM
[10] = human, plasma, po, 50 mg, 50 mg single oral dose, fasting, GM
[11] = human, plasma, po, 125 mg, 125 mg single oral dose, fasting, GM
[12] = human, plasma, po, 250 mg, 250 mg single oral dose, fasting, GM
[13] = human, plasma, po, 500 mg, 500 mg single oral dose, FASTED, GM
[14] = human, plasma, po, 500 mg, 500 mg single oral dose, FED (high-fat breakfast), GM
[15] = human, plasma, po, 1000 mg, 1000 mg single oral dose, fasting, GM
[16] = rat, intragastric 5 mg/Kg, aqueous dosing solution, individual rats 1-4

## C=Cc1cc(C(=O)Nc2ccc(C(=N)N)cc2)c(-c2ccc(C(=O)NCC3CC3)nc2C(=O)O)cc1OC [Example 1, 3-[2-(4-carbamimidoyl-phenylcarbamoyl)-5-methoxy-4-vinyl-phenyl]-6-(cyclopropylmethyl-carbamoyl)-pyridine-2-carboxylic acid]
[1]; [6]
  DN AUC0-inf: 1.94 ng·h/mL/mg
  DN Cmax: 0.528 ng/mL/mg
[1]; [7]
  DN AUC0-inf: 1.58 ng·h/mL/mg
  DN Cmax: 0.432 ng/mL/mg
[1]; [8]
  DN AUC0-inf: 1.41 ng·h/mL/mg
  DN Cmax: 0.344 ng/mL/mg
[1]; 500 mg single oral dose
  reduction of AUCinf with food v. fasting: 23%
  reduction of AUClast with food v. fasting: 20%
  reduction of geometric mean Cmax after a high-fat breakfast v. fasting: 47%
[1]; [9]
  DN AUC0-inf: 1.60 ng·h/mL/mg
  DN Cmax: 0.311 ng/mL/mg
[1]; 1000 mg single oral dose, fasting, GM
  DN Cmax: 0.193 ng/mL/mg
[1]; 1000 mg single oral dose, fasting, GM, n = 5
  DN AUC0-inf: 0.983 ng·h/mL/mg
[1]; human, plasma, oral, 50 mg, Cohort 1 (50 mg single dose), read-out: terminal half-life (converted)
  half-life: ~3 h
[1]; human, plasma, oral, 500 mg, Cohort 4 (500 mg single dose), read-out: terminal half-life (converted)
  half-life: ~15 h
[1]; human, plasma, oral, single doses, read-out: plasma concentrations at 12 hours postdose
  concentration at 12 h: < 10 ng/mL
[1]; [10]
  AUC(0-inf): 96.8 ng·h/mL
  AUC(0-t): 89.6 ng·h/mL
  Cmax: 26.4 ng/mL
[1]; human, plasma, po, 50 mg, 50 mg single oral dose, fasting, GM, read-out: t1/2 (converted)
  half-life: 2.98 h
[1]; human, plasma, po, 50 mg, 50 mg single oral dose, fasting
  Tmax: 1 h
[1]; [11]
  AUC(0-inf): 197 ng·h/mL
  AUC(0-t): 188 ng·h/mL
  Cmax: 54 ng/mL
[1]; human, plasma, po, 125 mg, 125 mg single oral dose, fasting, GM, read-out: t1/2 (converted)
  half-life: 4.66 h
[1]; human, plasma, po, 125 mg, 125 mg single oral dose, fasting
  Tmax: 2 h
[1]; [12]
  AUC(0-inf): 353 ng·h/mL
  AUC(0-t): 336 ng·h/mL
  Cmax: 85.9 ng/mL
[1]; human, plasma, po, 250 mg, 250 mg single oral dose, fasting, GM, read-out: t1/2 (converted)
  half-life: 6.5 h
[1]; human, plasma, po, 250 mg, 250 mg single oral dose, fasting
  Tmax: 2 h
[1]; [13]
  AUC(0-inf): 802 ng·h/mL
  AUC(0-t): 760 ng·h/mL
  Cmax: 155 ng/mL
[1]; human, plasma, po, 500 mg, 500 mg single oral dose, FASTED, GM, read-out: t1/2 (converted)
  half-life: 15.4 h
[1]; human, plasma, po, 500 mg, 500 mg single oral dose, FASTED
  Tmax: 2 h
[1]; [14]
  AUC(0-t): 586 ng·h/mL
  Cmax: 82.1 ng/mL
[1]; human, plasma, po, 500 mg, 500 mg single oral dose, FED (high-fat breakfast), GM, n = 5
  AUC(0-inf): 642 ng·h/mL
[1]; human, plasma, po, 500 mg, 500 mg single oral dose, FED (high-fat breakfast), GM, n = 5, sampling to 96 hours, read-out: t1/2 (converted)
  half-life: 18.9 h
[1]; human, plasma, po, 500 mg, 500 mg single oral dose, FED (high-fat breakfast)
  Tmax: 2.5 h
[1]; [15]
  AUC(0-t): 981 ng·h/mL
  Cmax: 193 ng/mL
[1]; human, plasma, po, 1000 mg, 1000 mg single oral dose, fasting, GM, n = 5
  AUC(0-inf): 983 ng·h/mL
[1]; human, plasma, po, 1000 mg, 1000 mg single oral dose, fasting, GM, n = 5, sampling to 96 hours, read-out: t1/2 (converted)
  half-life: 12.3 h
[1]; human, plasma, po, 1000 mg, 1000 mg single oral dose, fasting
  Tmax: 2 h
[2]; rat, in vivo, 5 mg/Kg, Plasma concentration, 0 min, intragastric 5 mg/Kg, aqueous dosing solution, individual rats 1-4
  concentration at 0 min: 0 ng/mL
[2]; [16]
  Plasma concentration, 0 min: 0 ng/mL
  Plasma concentration, 30 min: 108 ng/mL and <10 ng/mL and 188 ng/mL and 23 ng/mL
  Plasma concentration, 1 hr: 88 ng/mL and <10 ng/mL and 130 ng/mL and 30 ng/mL
  Plasma concentration, 2 hr: 123 ng/mL and <10 ng/mL and 87 ng/mL and 27 ng/mL
  Plasma concentration, 4 hr: 134 ng/mL and <10 ng/mL and 99 ng/mL and 24 ng/mL
  Plasma concentration, 8 hr: 48 ng/ml and <10 ng/ml (2×) and 30 ng/ml
[2]; rats, aqueous dosing solutions
  Gastrointestinal (GI) absorption: very low or zero
[3]; 3-[(3-Chloamidopropyl)-dimethylamino]-1-propanesulfate 1%
  Saturated concentration of Example 1: 0.66 mg/mL
[3]; D-alpha-tocopheryl-polyethylene glycol 1000 succinate 12.3% (in PEG 400)
  Saturated concentration of Example 1: 7.8 mg/mL
[3]; D-alpha-tocopheryl-polyethylene glycol 1000 succinate 20% (in PEG 400)
  Saturated concentration of Example 1: 20.8 mg/mL
[3]; Lecithin 2% (in water)
  Saturated concentration of Example 1: 1.2 mg/mL
[3]; Lecithin 4% (in PEG 400)
  Saturated concentration of Example 1: 3.3 mg/mL
[3]; Lecithin 4% (in water)
  Saturated concentration of Example 1: 2.2 mg/mL
[3]; Lecithin 10% (in PEG 400)
  Saturated concentration of Example 1: 10.6 mg/mL
[3]; Lecithin 10% (in water)
  Saturated concentration of Example 1: 3.1 mg/mL
[3]; Octadecyl amine 1% (in PEG 400)
  Saturated concentration of Example 1: 7.8 mg/mL and 7.1 mg/mL
[3]; Palmitoyl-carnitine chloride 0.10% (in water)
  Saturated concentration of Example 1: 0.3 mg/mL
[3]; dioctyl sodium sulfosuccinate 1% in PEG400
  Saturated concentration of Example 1: 1.72 mg/mL
[3]; sodium lauryl sulphate 1% (in water)
  Saturated concentration of Example 1: 2.4 mg/mL
[3]; sodium lauryl sulphate 2% (in water)
  Saturated concentration of Example 1: 4.7 mg/mL
[3]; sodium lauryl sulphate 5% (in water)
  Saturated concentration of Example 1: 10 mg/mL
[4]
  logD at 24 h: 1.9
[5]; Captisol 150 mM with DMSO 10%, Captisol 150 mM, DMSO 10%
  solubility: 3980 µg/mL
[5]; Captisol 150 mM with ethanol 10%, Captisol 150 mM, Ethanol 10%
  solubility: 3550 µg/mL
[5]; Captisol 150 mM with propylene glycol 10%, Captisol 150 mM, Propylene glycol 10%
  solubility: 3300 µg/mL
[5]; Captisol 150 mM with sodium dodecyl sulphate 100 mg, Captisol 150 mM, Sodium dodecyl sulphate 100 mg
  solubility: 240 µg/mL
[5]; Captisol (sulfobutylether β-cyclodextrin) solution, Captisol 150 mM, no co-solvent
  solubility: 7610 µg/mL
[5]; Captisol solution with co-agent, Captisol 150 mM, HPMC E-5 0.25%
  solubility: 4160 µg/mL
[5]; Captisol solution with co-agent, Captisol 150 mM, Polyethylene glycol 400 10%
  solubility: 5460 µg/mL
[5]; with and without co-agents
  solubility in cyclodextrins: not soluble in cyclodextrins
[5]; α-cyclodextrin 150 mM with DMSO 10%, α-cyclodextrin 150 mM, DMSO 10%
  solubility: 11100 µg/mL
[5]; α-cyclodextrin 150 mM with ethanol 10%, α-cyclodextrin 150 mM, Ethanol 10%
  solubility: 270 µg/mL
[5]; α-cyclodextrin 150 mM with propylene glycol 10%, α-cyclodextrin 150 mM, Propylene glycol 10%
  solubility: 4980 µg/mL
[5]; α-cyclodextrin solution with co-agent, α-cyclodextrin 150 mM, HPMC E-5 0.25%
  solubility: 9950 µg/mL
[5]; α-cyclodextrin solution with co-agent, α-cyclodextrin 150 mM, Polyethylene glycol 400 10%
  solubility: 5000 µg/mL
[5]; α-cyclodextrin solution with co-agent, α-cyclodextrin 150 mM, Sodium dodecyl sulphate 100 mg
  solubility: 10000 µg/mL
[5]; α-cyclodextrin solution, α-cyclodextrin 150 mM, no co-solvent
  solubility: 10000 µg/mL
